These results are taken from patent publication US10973868B2, “Composition for topical use based on a carnosine-magnesium complex” (Outplay Inc., priority 2016, dated 2021).

Data set [1] has as its system rat extensor digitorum longus muscle fibres. Conditions: mechanically skinned fibres; cited from earlier work.
Data set [2] concerns adults with chronic schizophrenia. As to the kind of experiment: L-carnosine adjunctive treatment in chronic schizophrenia, strategic target detection test. In kind it is in vivo, human. The following applies: 2 g/day adjunctive, 3 months, vs placebo. From the text:
Improved Cognition In Schizophrenia: Targeting glutamatergic dysfunction provides an exciting opportunity to improve cognitive impairment in schizophrenia. One treatment approach has targeted inadequate antioxidant defenses at glutamatergic synapses. […] We conducted a preliminary study to test the hypothesis that L-carnosine, an antioxidant and anti-glycation agent which is co-localized and released with glutamate would improve executive dysfunction, a cognitive domain associated with glutamate. Seventy-five symptomatically stable adults with chronic schizophrenia were randomly assigned to L-carnosine as adjunctive treatment (2 g/day) or a matched placebo in a double-blind manner for 3 months. […] The recommended dosage is 4-6 ml of the exemplary composition of the topical composition illustrated above four times a day applied to all four limbs.

For data set [3] the following is noted: aqueous solution; cited from earlier work.
In data set [4] the test system is children with autistic spectrum disorders. The following applies: after 8 weeks, P<0.05; cited from earlier work.
The test system of a further data set is horse fibre types. Conditions: cited from earlier work.
The subject of a further data set is mice. Conditions: cited from earlier work.
Data set [5] concerns muscle fibres of Rana Temporaria. Conditions: 15 mM of carnosine; cited from earlier work.

Where two headings read alike, the source gives them in different places.

As for `NCCC(=O)N[C@@H](Cc1c[nH]cn1)C(=O)O` [carnosine, β-alanyl-L-histidine], in data set [1], the “Ca^2+ release from the sarcoplasmic reticulum” value is reported as “did not affect” and the “Ca^2+ sensitivity of the contractile components” value was “increase”. Further, in data set [2], the “perseverative errors on the strategic target detection test” value is “fewer perseverative errors” and the “strategic efficiency on the strategic target detection test” value was “significantly improved”. Further, the “pK of the carboxylic function” value in data set [3] is given as 2.6. For the same compound, in data set [4], the “Gilliam Autism Rating Scale (total score and Behavior, Socialization, Communication subscales)” value is reported as “statistically significant improvements”; the “Receptive One-Word Picture Vocabulary test” value was “statistically significant improvements”. In addition, the contribution to buffering result with horse fibre types (type I fibres) is on record as “about 20%”. In addition, in the data set with horse fibre types (type IIb fibres), the contribution to buffering entry is “up to 46%”. Also, the “amount of brain tissue involved in experimentally-produced strokes” value in the data set on mice is “significantly reduced”. Further, the “Ca^2+ sensitivity” value in data set [5] was “significant increase”.
